Our source for the T/C values is PubChem BioAssay AID212 (DTP/NCI, 2004).

The subject of the assay is BDF1 mice, colon carcinoma 38 sc, T/C %. As to the kind of experiment: NCI In Vivo Anticancer Drug Screen. Data for tumor model Colon Carcinoma 38 (subcutaneous) in B6D2F1 (BDF1) mice. The conditions noted are these: endpoint: median tumor weight (est.), higher = larger tumour. The method in brief: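 Transplantable tumor in mice; compound-treated vs vehicle-dosed controls. Measured survival or tumor size; value = T ÷ C.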

The mark [1] stands for this setting: dose: 12.5 mg/kg/injection, schedule: Q07DX002 (ip), vehicle: saline with Tween-80.
[2] abbreviates: dose: 25.0 mg/kg/injection, schedule: Q07DX002 (ip), vehicle: saline with Tween-80.
[3] abbreviates: dose: 50.0 mg/kg/injection, schedule: Q07DX002 (ip), vehicle: saline with Tween-80.
[4] abbreviates: dose: 400.0 mg/kg/injection, schedule: Q07DX002 (ip), vehicle: saline with Tween-80.
[5] abbreviates: dose: 25.0 mg/kg/injection, schedule: Q07DX002 (ip), vehicle: saline.
Setting [6] is: dose: 100.0 mg/kg/injection, schedule: Q07DX002 (ip), vehicle: saline.
Where [7] appears, read: dose: 200.0 mg/kg/injection, schedule: Q07DX002 (ip), vehicle: saline.
Setting [8] is: dose: 12.5 mg/kg/injection, schedule: Q07DX002 (ip), vehicle: Klucel (hydroxypropylcellulose) (HPC).
Setting [9] is: dose: 25.0 mg/kg/injection, schedule: Q07DX002 (ip), vehicle: Klucel (hydroxypropylcellulose) (HPC).
[10] abbreviates: dose: 50.0 mg/kg/injection, schedule: Q07DX002 (ip), vehicle: Klucel (hydroxypropylcellulose) (HPC).

“And” between values parts separate entries of the source, which are not always exact repeats. Equal entries are not always repeated. Records with an inconclusive call do not appear. *1 amine or outer side, *2 acyl side, *3 side chain or, on linkers, in order; H or OH if unused. Where a SMILES comes first, the peptide text is derived from it. Bridges are numbered along the chain shown (N, C = ends). Roman numbers before positions name the chains, in order. [ ]: non-standard residue; d: D form. Actinocin(9to1) = Cc1c2oc3c(C)ccc(C(=O)[*:1])c3nc-2c(C(=O)[*:2])c(N)c1=O; aThr = C[C@H](O)[C@H](N)C(=O)O; NMeV = CN[C@H](C(=O)O)C(C)C; Sar = CNCC(=O)O

As for `CCC[CH2][Hg][Cl]`, the T/C is 99 % of control (dose: 0.62 mg/kg/injection, schedule: Q07DX002 (ip), vehicle: Klucel (hydroxypropylcellulose) (HPC)); 92 % of control (dose: 2.5 mg/kg/injection, schedule: Q07DX002 (ip), vehicle: Klucel (hydroxypropylcellulose) (HPC)); 105 % of control (dose: 5.0 mg/kg/injection, schedule: Q07DX002 (ip), vehicle: Klucel (hydroxypropylcellulose) (HPC)); 113 % of control (dose: 20.0 mg/kg/injection, schedule: Q07DX002 (ip), vehicle: Klucel (hydroxypropylcellulose) (HPC)).

Regarding `Cc1ncc([N+](=O)[O-])n1CCO`, the T/C by setting is: (dose: 37.5 mg/kg/injection, schedule: Q01DX005 (ip), vehicle: Klucel (hydroxypropylcellulose) (HPC)) 78 % of control; (dose: 37.5 mg/kg/injection, schedule: Q04DX003 (ip), vehicle: Klucel (hydroxypropylcellulose) (HPC)) 88 % of control; (dose: 75.0 mg/kg/injection, schedule: Q01DX005 (ip), vehicle: Klucel (hydroxypropylcellulose) (HPC)) 61 % of control; (dose: 75.0 mg/kg/injection, schedule: Q04DX003 (ip), vehicle: Klucel (hydroxypropylcellulose) (HPC)) 121 % of control; (dose: 75.0 mg/kg/injection, schedule: Q07DX002 (ip), vehicle: Klucel (hydroxypropylcellulose) (HPC)) 74 % of control; (dose: 150.0 mg/kg/injection, schedule: Q01DX005 (ip), vehicle: Klucel (hydroxypropylcellulose) (HPC)) 83 % of control. Further, the T/C (dose: 150.0 mg/kg/injection, schedule: Q04DX003 (ip), vehicle: Klucel (hydroxypropylcellulose) (HPC)) is 80 % of control; the T/C (dose: 150.0 mg/kg/injection, schedule: Q07DX002 (ip), vehicle: Klucel (hydroxypropylcellulose) (HPC)) is 156 % of control; the T/C (dose: 300.0 mg/kg/injection, schedule: Q01DX005 (ip), vehicle: Klucel (hydroxypropylcellulose) (HPC)) was 93 % of control; the T/C (dose: 300.0 mg/kg/injection, schedule: Q04DX003 (ip), vehicle: Klucel (hydroxypropylcellulose) (HPC)) was 75 % of control; the T/C (dose: 300.0 mg/kg/injection, schedule: Q07DX002 (ip), vehicle: Klucel (hydroxypropylcellulose) (HPC)) is 103 % of control; the T/C (dose: 600.0 mg/kg/injection, schedule: Q01DX005 (ip), vehicle: Klucel (hydroxypropylcellulose) (HPC)) is 105 % of control. Where the note is “dose: 600.0 mg/kg/injection, schedule: Q07DX002 (ip), vehicle: Klucel (hydroxypropylcellulose) (HPC)”, the T/C was 99 % of control.

In the case of `Cc1cc(NCCCCCCCNc2cc(C)nc3cc(N)ccc23)c2ccc(N)cc2n1`, the T/C (dose: 1.56 mg/kg/injection, schedule: Q07DX002 (ip), vehicle: saline with Tween-80) was 78 % of control.

On to `CCc1ccc(C2=C(O)C(=O)C(c3ccc(CC)cc3)=C(O)C2=O)cc1`, for which the T/C was 51 % of control (dose: 3.12 mg/kg/injection, schedule: Q07DX002 (ip), vehicle: saline with Tween-80); 124 % of control under setting [1]; 96 % of control under setting [2]; 81 % of control under setting [3].

For the compound `CCOC(=O)C1(c2ccccc2)C(=O)Oc2ccccc21` (centres undefined), the T/C is 94 % of control under setting [1]; 112 % of control and 87 % of control under setting [2]; 61 % of control under setting [3]; 107 % of control under setting [4].

Regarding `COc1ccc(S(=O)(=O)N/N=C/C(=O)O)cc1`, the T/C was 82 % of control (dose: 6.25 mg/kg/injection, schedule: Q07DX002 (ip), vehicle: saline with Tween-80); 96 % of control and 104 % of control under setting [2]; 117 % of control and 100 % of control under setting [3]; 87 % of control and 95 % of control (dose: 200.0 mg/kg/injection, schedule: Q07DX002 (ip), vehicle: saline with Tween-80).

With `NCCc1cc(O)c(O)c(O)c1`, the T/C was 71 % of control under setting [5]; 62 % of control (dose: 50.0 mg/kg/injection, schedule: Q07DX002 (ip), vehicle: saline); 82 % of control under setting [6]; 80 % of control under setting [7]; 110 % of control (dose: 400.0 mg/kg/injection, schedule: Q07DX002 (ip), vehicle: saline); 51 % of control (dose: 800.0 mg/kg/injection, schedule: Q07DX002 (ip), vehicle: saline).

Regarding `COc1cc(OC)c(OC)cc1/C=C\c1ccnc2ccccc12`, the T/C runs as follows: under setting [8], 93 % of control; under setting [9], 120 % of control; under setting [10], 160 % of control and 171 % of control; (dose: 100.0 mg/kg/injection, schedule: Q07DX002 (ip), vehicle: Klucel (hydroxypropylcellulose) (HPC)) 85 % of control and 97 % of control; (dose: 400.0 mg/kg/injection, schedule: Q07DX002 (ip), vehicle: Klucel (hydroxypropylcellulose) (HPC)) 120 % of control.

For the compound `O=C(O)Cc1cccc2c(=O)cc(-c3ccc4ccccc4c3)oc12`, the T/C reads like this: under setting [6], 104 % of control; under setting [7], 59 % of control.

Consider `Cc1c2c(ccc3ccccc32)c[n+]2ccccc12`, for which the T/C is, setting by setting: (dose: 3.12 mg/kg/injection, schedule: Q07DX002 (ip), vehicle: saline) 154 % of control; (dose: 6.25 mg/kg/injection, schedule: Q07DX002 (ip), vehicle: saline) 118 % of control; (dose: 12.5 mg/kg/injection, schedule: Q07DX002 (ip), vehicle: suspension in saline) 102 % of control; under setting [5], 107 % of control; (dose: 25.0 mg/kg/injection, schedule: Q07DX002 (ip), vehicle: suspension in saline) 91 % of control.

As for `Cc1c2oc3c(C)ccc(C(=O)N[C@@H]4C(=O)N[C@H](C(C)C)C(=O)N5CCC[C@H]5C(=O)N(C)CC(=O)N(C)[C@@H](C(C)C)C(=O)O[C@H]4C)c3nc-2c(C(=O)N[C@@H]2C(=O)N[C@H](C(C)C)C(=O)N3CCC[C@H]3C(=O)N(C)CC(=O)N(C)[C@@H](C(C)C)C(=O)O[C@H]2C)c(N)c1=O` (I: [aThr][dV]P[Sar][NMeV] / II: [aThr][dV]P[Sar][NMeV]; ester I:1-I:C, II:1-II:C; linker I:N-II:N via Actinocin(9to1)), the T/C (dose: 100.0 micrograms/kg/injection, schedule: Q07DX002 (ip), vehicle: saline + alcohol) was 104 % of control; the T/C (dose: 200.0 micrograms/kg/injection, schedule: Q07DX002 (ip), vehicle: saline + alcohol) is 77 % of control; the T/C (dose: 400.0 micrograms/kg/injection, schedule: Q07DX002 (ip), vehicle: saline + alcohol) was 19 % of control.

In the case of `CC(/C=C/c1ccccc1)=Nc1ccccc1`, the T/C runs as follows: under setting [2], 40 % of control; under setting [3], 110 % of control; (dose: 100.0 mg/kg/injection, schedule: Q07DX002 (ip), vehicle: saline with Tween-80) 92 % of control; under setting [4], 185 % of control.

`C=C(C)C(=O)O[C@H]1CC2=C[C@@H](C[C@@]3(C)O[C@@H]3[C@H]3OC(=O)C(=C)[C@@H]31)OC2=O`: the T/C by setting is: (dose: 3.12 mg/kg/injection, schedule: Q07DX002 (ip), vehicle: Klucel (hydroxypropylcellulose) (HPC)) 93 % of control; (dose: 6.25 mg/kg/injection, schedule: Q07DX002 (ip), vehicle: Klucel (hydroxypropylcellulose) (HPC)) 112 % of control and 105 % of control; under setting [8], 93 % of control; under setting [9], 90 % of control and 102 % of control; under setting [10], 113 % of control and 100 % of control.

As for `CC1(O)CC23CC(O)C4(O)C(CC(O)C4(C)C)C(C)(O)C2CCC1C3O` (centres undefined), the T/C was 102 % of control (dose: 0.25 mg/kg/injection, schedule: Q07DX002 (ip), vehicle: Klucel (hydroxypropylcellulose) (HPC)) and 53 % of control (dose: 0.5 mg/kg/injection, schedule: Q07DX002 (ip), vehicle: Klucel (hydroxypropylcellulose) (HPC)).

For the compound `O=C(O)C1CC(c2ccccc2)=NN1c1ccccc1` (centres undefined), the T/C reads like this: (dose: 25.0 mg/kg/injection, schedule: Q07DX002 (ip), vehicle: water) 114 % of control and 103 % of control; (dose: 100.0 mg/kg/injection, schedule: Q07DX002 (ip), vehicle: water) 65 % of control; (dose: 200.0 mg/kg/injection, schedule: Q07DX002 (ip), vehicle: water) 56 % of control and 69 % of control.

For the compound `C=CC(C)NC(=S)NNC(=S)NC` (centres undefined), the T/C reads like this: (dose: 50.0 mg/kg/injection, schedule: Q07DX002 (ip), vehicle: saline + alcohol) 97 % of control; (dose: 100.0 mg/kg/injection, schedule: Q07DX002 (ip), vehicle: saline + alcohol) 112 % of control; (dose: 200.0 mg/kg/injection, schedule: Q07DX002 (ip), vehicle: saline + alcohol) 104 % of control; (dose: 400.0 mg/kg/injection, schedule: Q07DX002 (ip), vehicle: saline + alcohol) 86 % of control.
